This is an account of results in ChEMBL document CHEMBL6096675 (J Med Chem, 2025).

Experiment [1] addresses von Hippel-Lindau disease tumor suppressor/SWI/SNF-related matrix-associated actin-dependent regulator of chromatin subfamily A member 4 (Homo sapiens, UniProt P51532+P40337). The experiment in a line: PROTAC activity at SMARCA4/VHL1 in human HeLa cells assessed as protein degradation after 2 hrs by Nano-Glo HiBiT lytic detection assay. In kind it is cell-based. (HiBiT is a short tag that completes a luciferase, so light tracks the accessible tagged protein.)

A further experiment concerns SK-MEL-5. The experiment in a line: Antiproliferative activity against human SMARCA4-deficient SK-MEL-5 cells assessed as inhibition of cell growth measured after 7 days by WST-8 assay. In kind it is functional. The following applies: SK-MEL-5, 168 h, time 7 day. Background: Formazan colour is commonly taken as a measure of viable cells.
Experiment [2] in a line: Antiproliferative activity against human SMARCA4-deficient NCI-H1944 cells assessed as inhibition of cell growth measured after 7 days by WST-8 assay. In kind it is functional. The following applies: NCI-H1944, 168 h, time 7 day.
Experiment [3] in a line: Antiproliferative activity against human […] NCI-H1975 cells assessed as maximal inhibition of cell growth measured after 7 days by WST-8 assay relative to control. In kind it is functional. The following applies: time 7 day.
The test system of experiment [4] is SK-MEL-28. Put plainly: Antiproliferative activity against human SMARCA4-wild type SK-MEL-28 cells assessed as maximal inhibition of cell growth measured after 7 days by WST-8 assay relative to control. The experiment is classed as functional. The conditions noted are these: time 7 day.
Experiment [5] can be described thus: Antiproliferative activity against human SMARCA4-deficient NCI-H838 cells assessed as maximal inhibition of cell growth measured after 7 days by WST-8 assay relative to control. The experiment is classed as functional. The conditions noted are these: time 7 day.
Experiment [6] can be described thus: Antiproliferative activity against human SMARCA4-deficient NCI-H1944 cells assessed as maximal inhibition of cell growth measured after 7 days by WST-8 assay relative to control. The experiment is classed as functional. The conditions noted are these: time 7 day.
A further experiment relates to NCI-H838. The experiment in a line: In vivo anti-tumor activity against SMARCA4-deficient human NCI-H838 cells xenografted in SCID mouse assessed as assessed as inhibition of tumor growth at 10 to 30 mg/kg, iv weekly once. In kind it is functional, organism-based. The conditions noted are these: dose 10-30 mg/kg. In general terms: Xenograft models place foreign cells or tissue in a host animal.

Experiment [7] has as its system NCI-H1792. Put plainly: Antiproliferative activity against human SMARCA4-wild type NCI-H1792 cells assessed as inhibition of cell growth measured after 7 days by WST-8 assay. The following applies: NCI-H1792, 168 h, time 7 day. In kind it is functional.
A short description of experiment [8]: Antiproliferative activity against human SMARCA4-deficient NCI-H838 cells assessed as inhibition of cell growth measured after 7 days by WST-8 assay. In kind it is functional. The conditions noted are these: NCI-H838, 168 h, time 7 day.
The nature of experiment [9]: Antiproliferative activity against human SMARCA4-deficient NCI-H1568 cells assessed as inhibition of cell growth measured after 7 days by WST-8 assay. In kind it is functional. The following applies: NCI-H1568, 168 h, time 7 day.
A short description of experiment [10]: Antiproliferative activity against human […] NCI-H1975 cells assessed as inhibition of cell growth measured after 7 days by WST-8 assay. The conditions noted are these: NCI-H1975, 168 h, time 7 day. The experiment is classed as functional.
A short description of experiment [11]: Antiproliferative activity against human SMARCA4-deficient NCI-H1693 cells assessed as inhibition of cell growth measured after 7 days by WST-8 assay. In kind it is functional. The conditions noted are these: NCI-H1693, 168 h, time 7 day.
Experiment [12] concerns SK-MEL-28. The experiment in a line: Antiproliferative activity against human SMARCA4-wild type SK-MEL-28 cells assessed as inhibition of cell growth measured after 7 days by WST-8 assay. The following applies: SK-MEL-28, 168 h, time 7 day. The experiment is classed as functional.
A short description of experiment [13]: Antiproliferative activity against human SMARCA4-deficient NCI-H1693 cells assessed as maximal inhibition of cell growth measured after 7 days by WST-8 assay relative to control. The following applies: time 7 day. The experiment is classed as functional.
The nature of experiment [14]: Antiproliferative activity against human SMARCA4-deficient NCI-H1568 cells assessed as maximal inhibition of cell growth measured after 7 days by WST-8 assay relative to control. The experiment is classed as functional. The conditions noted are these: time 7 day.
Experiment [15] deals with NCI-H1792. The experiment in a line: Antiproliferative activity against human SMARCA4-wild type NCI-H1792 cells assessed as maximal inhibition of cell growth measured after 7 days by WST-8 assay relative to control. The following applies: time 7 day. In kind it is functional.

Activity calls are given as the source filed them. No cut-off for these calls is given here.

Chain of von Hippel-Lindau disease tumor suppressor/SWI/SNF-related matrix-associated actin-dependent regulator of chromatin subfamily A member 4 (P51532 whole entry): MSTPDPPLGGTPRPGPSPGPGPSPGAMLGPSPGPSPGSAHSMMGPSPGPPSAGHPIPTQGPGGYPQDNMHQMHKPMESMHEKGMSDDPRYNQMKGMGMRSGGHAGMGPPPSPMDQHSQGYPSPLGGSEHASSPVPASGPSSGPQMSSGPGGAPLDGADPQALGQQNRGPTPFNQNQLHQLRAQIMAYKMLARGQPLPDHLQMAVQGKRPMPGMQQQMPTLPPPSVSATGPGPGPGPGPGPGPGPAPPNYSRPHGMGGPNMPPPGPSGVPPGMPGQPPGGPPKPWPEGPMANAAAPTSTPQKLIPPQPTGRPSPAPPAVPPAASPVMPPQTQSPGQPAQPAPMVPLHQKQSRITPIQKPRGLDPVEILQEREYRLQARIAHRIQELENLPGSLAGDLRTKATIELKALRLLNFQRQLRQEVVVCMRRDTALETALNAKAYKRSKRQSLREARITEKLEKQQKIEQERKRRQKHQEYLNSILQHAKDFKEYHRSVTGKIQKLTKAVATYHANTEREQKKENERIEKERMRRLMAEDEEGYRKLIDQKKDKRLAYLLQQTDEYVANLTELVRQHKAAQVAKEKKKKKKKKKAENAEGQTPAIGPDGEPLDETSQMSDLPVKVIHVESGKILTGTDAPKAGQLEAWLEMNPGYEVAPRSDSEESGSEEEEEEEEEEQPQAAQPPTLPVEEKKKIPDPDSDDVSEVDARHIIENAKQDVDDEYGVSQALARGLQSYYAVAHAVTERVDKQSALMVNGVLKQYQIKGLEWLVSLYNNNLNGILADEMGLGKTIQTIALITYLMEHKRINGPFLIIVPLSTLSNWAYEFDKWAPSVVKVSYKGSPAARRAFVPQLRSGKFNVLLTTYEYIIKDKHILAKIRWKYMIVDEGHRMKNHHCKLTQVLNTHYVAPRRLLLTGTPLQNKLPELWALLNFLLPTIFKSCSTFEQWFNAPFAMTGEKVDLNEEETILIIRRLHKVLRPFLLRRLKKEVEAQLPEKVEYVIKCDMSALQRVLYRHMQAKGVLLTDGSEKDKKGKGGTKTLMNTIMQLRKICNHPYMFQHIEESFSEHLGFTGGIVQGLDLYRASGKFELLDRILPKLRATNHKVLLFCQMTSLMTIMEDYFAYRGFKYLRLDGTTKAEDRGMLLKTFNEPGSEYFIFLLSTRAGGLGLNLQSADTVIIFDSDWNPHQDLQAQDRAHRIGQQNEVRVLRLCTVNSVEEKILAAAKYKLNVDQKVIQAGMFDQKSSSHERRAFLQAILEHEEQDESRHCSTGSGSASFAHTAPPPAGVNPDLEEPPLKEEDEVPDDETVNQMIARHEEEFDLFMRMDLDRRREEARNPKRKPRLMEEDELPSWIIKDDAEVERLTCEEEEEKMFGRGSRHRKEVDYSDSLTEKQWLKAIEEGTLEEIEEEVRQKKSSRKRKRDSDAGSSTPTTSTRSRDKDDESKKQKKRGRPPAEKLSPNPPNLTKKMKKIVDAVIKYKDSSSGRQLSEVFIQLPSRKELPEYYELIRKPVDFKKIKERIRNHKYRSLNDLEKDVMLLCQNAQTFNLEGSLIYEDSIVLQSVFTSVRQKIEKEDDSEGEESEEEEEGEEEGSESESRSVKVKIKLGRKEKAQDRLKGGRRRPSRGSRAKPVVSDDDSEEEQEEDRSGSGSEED
Chain of von Hippel-Lindau disease tumor suppressor/SWI/SNF-related matrix-associated actin-dependent regulator of chromatin subfamily A member 4 (P40337 whole entry): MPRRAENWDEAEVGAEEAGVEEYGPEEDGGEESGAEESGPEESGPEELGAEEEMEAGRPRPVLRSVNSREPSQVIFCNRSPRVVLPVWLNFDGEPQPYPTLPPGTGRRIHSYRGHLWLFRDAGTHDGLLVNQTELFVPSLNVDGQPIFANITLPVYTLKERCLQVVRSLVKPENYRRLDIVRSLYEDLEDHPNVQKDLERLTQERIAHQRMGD

Consider `Cc1ncsc1-c1ccc([C@H](CN2CCOCC2)NC(=O)[C@@H]2C[C@H](O)CN2C(=O)[C@@H](n2cc([C@H]3CC[C@H](CN4CCC(c5ccc6c(c5)C5(CCCCC5)c5nc(=O)c7c(Cl)cccc7n5-6)CC4)CC3)nn2)C(C)(C)C)cc1`, for which the DC50 entry in experiment [1] is “Not_active”.

For the compound `Cc1ncsc1-c1ccc([C@H](C)NC(=O)[C@@H]2C[C@@H](O)CN2C(=O)[C@@H](NC(=O)[C@H]2CC[C@H](CN3CC4(CCC(n5cc(-c6cc(-c7ccccc7O)nnc6N)cn5)CC4)C3)CC2)C(C)(C)C)cc1`, the GI50 in the experiment on SK-MEL-5 was 16 nM; in [2], 123 nM; with NCI-H1792 [7], over 10000 nM; in experiment [8], 152 nM; in [9] it was 12 nM; in experiment [10] it was over 10000 nM. The GI50 in experiment [11] was 43 nM; with SK-MEL-28 [12] it was over 10000 nM. In addition, the Imax in experiment [3] is 40%; with SK-MEL-28 [4], 15%; in [5] it was 77%; in experiment [6] it was 70%; in experiment [13] it was 81%; in experiment [14], 87%. The Imax in the experiment on NCI-H1792 [15] is on record as 25%. For the same compound, the outcome in the experiment on NCI-H838 was Active.

What is called GI50 is the concentration giving 50% growth inhibition.
